These results are taken from article PMC10387993, “New pyrimidine-N-β-D-glucosides: synthesis, biological evaluation, and molecular docking investigations” (Turkish Journal of Chemistry, 2023).

What all share (assay): cells
Common to all, as to type: cell-based

For one assay, the system named is Hep3B. The conditions noted are these: Homo sapiens; for GI50 / IC50 / IC (total growth inhibition): MTT; for IC50: read-out: IC50; for IC (total growth inhibition): read-out: TGI; for LC50 (concentration causing 50% net cell loss relative to time zero): read-out: LC50. In short, it runs like this:
(§1)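 Cells were seeded at about 1 × 10^4 per well, brought to 200 μL with medium, and assessed by MTT: 4 h with MTT reagent, formazan dissolved in DMSO with Sorenson's buffer, absorbance read at 560 nm (690 nm reference). IC50 derived from percent inhibition relative to DMSO.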

The subject of the next assay is HeLa. The conditions noted are these: Homo sapiens; for GI50 / IC50 / IC (total growth inhibition): MTT; for IC50: read-out: IC50; for IC (total growth inhibition): read-out: TGI; for LC50 (concentration causing 50% net cell loss): read-out: LC50. The gist of the method: as §1
The next assay relates to A549. To be noted: Homo sapiens; for LC50 (concentration causing 50% net cell loss): A549, read-out: LC50; for GI50 / IC50 / IC (total growth inhibition): A549, MTT; for IC50: read-out: IC50; for IC (total growth inhibition): read-out: TGI. In short, it runs like this:
as §1

The next assay relates to C6 (Rat brain glioma). The conditions noted are these: Rattus norvegicus; for LC50 (concentration giving 50% net cell loss relative to time zero): read-out: LC50; for GI50 / IC50 / IC (total growth inhibition): C6, MTT; for IC50: read-out: IC50; for IC (total growth inhibition): read-out: TGI. In short, it runs like this: as §1
For another assay, the system named is HT29. To be noted: Homo sapiens; for LC50 (concentration giving 50% net cell loss relative to time zero): HT-29, read-out: LC50; for GI50 / IC50 / IC (total growth inhibition): HT-29, HT29, MTT; for IC50: read-out: IC50; for IC (total growth inhibition): read-out: TGI. The gist of the method:
as §1

Structures are written as SMILES. Values after ≈ are worked out from the molar mass of the structure shown. A value given as a limit tells only on which side of the number the result lay.

For orientation: GI50 means the concentration that inhibits growth by half. As a reminder, the IC50 is the midpoint of a concentration-inhibition curve. Turning to `CC(=O)OC[C@H]1O[C@@H](Nc2nc(-c3cccnc3)cc(-c3cccc(C)c3)n2)[C@H](OC(C)=O)[C@@H](OC(C)=O)[C@@H]1OC(C)=O` [Compound 14, 2,3,4,6-tetra-O-acetyl-N-[4-(3-methylphenyl)-6-pyridin-3-ylpyrimidin-2-yl]-β-D-glucopyranosylamine], in the assay with Hep3B, it took 4.9 µg/mL (≈ 8.27 µM) to inhibit growth by half (GI50), the IC50 was more than 500 µg/mL, the IC (total growth inhibition) is more than 500 µg/mL and the LC50 (concentration causing 50% net cell loss relative to time zero) was more than 500 µg/mL. Also, in the assay with HeLa, the GI50 was more than 500 µg/mL, the 50% inhibitory concentration (IC50) was more than 500 µg/mL, the IC (total growth inhibition) was more than 500 µg/mL and the LC50 (concentration causing 50% net cell loss) was more than 500 µg/mL. Besides, in the assay with A549, the LC50 (concentration causing 50% net cell loss) is more than 500 µg/mL, the 50% growth inhibitory concentration (GI50) was determined as 430 µg/mL (≈ 726 µM), the IC50 is more than 500 µg/mL and the IC (total growth inhibition) is more than 500 µg/mL. Also, in the assay with C6 (Rat brain glioma), the LC50 (concentration giving 50% net cell loss relative to time zero) was more than 500 µg/mL, the GI50 was more than 500 µg/mL, the half-inhibitory concentration (IC50) is more than 500 µg/mL and the IC (total growth inhibition) was more than 500 µg/mL. For the same compound, in the assay with HT29, the LC50 (concentration giving 50% net cell loss relative to time zero) is more than 500 µg/mL, the GI50 amounted to 2.28 µg/mL (≈ 3.85 µM), the half-inhibitory concentration (IC50) is more than 500 µg/mL and the IC (total growth inhibition) was more than 500 µg/mL.
On to `CC(=O)OC[C@H]1O[C@@H](Nc2nc(-c3ccncc3)cc(-c3cccc(C)c3)n2)[C@H](OC(C)=O)[C@@H](OC(C)=O)[C@@H]1OC(C)=O` [Compound 15, 2,3,4,6-tetra-O-acetyl-N-[4-(3-methylphenyl)-6-pyridin-4-ylpyrimidin-2-yl]-β-D-glucopyranosylamine], for which, in the assay on Hep3B, the GI50 is 5.55 µg/mL (≈ 9.37 µM), the half-inhibitory concentration (IC50) is more than 500 µg/mL, the IC (total growth inhibition) is more than 500 µg/mL and the LC50 (concentration causing 50% net cell loss relative to time zero) was more than 500 µg/mL. Also, in the assay with HeLa, the GI50 was more than 500 µg/mL, the IC50 is more than 500 µg/mL, the IC (total growth inhibition) was more than 500 µg/mL and the LC50 (concentration causing 50% net cell loss) is more than 500 µg/mL. Also, in the assay with A549, the LC50 (concentration causing 50% net cell loss) is more than 500 µg/mL, the concentration for 50% growth inhibition (GI50) was more than 500 µg/mL, the IC50 was more than 500 µg/mL and the IC (total growth inhibition) was more than 500 µg/mL. Besides, in the assay on C6 (Rat brain glioma), the LC50 (concentration giving 50% net cell loss relative to time zero) stood at 71.2 µg/mL (≈ 120 µM), the GI50 came to 2.21 µg/mL (≈ 3.73 µM), the 50% inhibitory concentration (IC50) is 11.2 µg/mL (≈ 19 µM) and the IC (total growth inhibition) turned out to be 6.3 µg/mL. In the assay on HT29, the LC50 (concentration giving 50% net cell loss relative to time zero) was more than 500 µg/mL, it took 5 µg/mL (≈ 8.44 µM) to inhibit growth by half (GI50), the half-maximal inhibitory concentration (IC50) was more than 500 µg/mL and the IC (total growth inhibition) was more than 500 µg/mL.
For the compound `CC(=O)OC[C@H]1O[C@@H](Nc2nc(-c3ccc(C)cc3)cc(-c3ccccn3)n2)[C@H](OC(C)=O)[C@@H](OC(C)=O)[C@@H]1OC(C)=O` [Compound 16, 2,3,4,6-tetra-O-acetyl-N-[4-(4-methylphenyl)-6-pyridin-2-ylpyrimidin-2-yl]-β-D-glucopyranosylamine], in the assay with Hep3B, the 50% growth inhibitory concentration (GI50) was found to be 1.99 µg/mL (≈ 3.36 µM), the half-inhibitory concentration (IC50) was 7.18 µg/mL (≈ 12.1 µM), the IC (total growth inhibition) amounted to 7.33 µg/mL and the LC50 (concentration causing 50% net cell loss relative to time zero) amounted to 326 µg/mL (≈ 550 µM). Also, in the assay on HeLa, the concentration for 50% growth inhibition (GI50) is 1.49 µg/mL (≈ 2.51 µM), the IC50 was found to be 9.13 µg/mL (≈ 15.4 µM), the IC (total growth inhibition) turned out to be 3.28 µg/mL and the LC50 (concentration causing 50% net cell loss) is 34.1 µg/mL (≈ 57.6 µM). Further, in the assay on A549, the LC50 (concentration causing 50% net cell loss) is more than 500 µg/mL, the GI50 came to 23.8 µg/mL (≈ 40.1 µM), the IC50 is more than 500 µg/mL and the IC (total growth inhibition) is more than 500 µg/mL. In the assay with C6 (Rat brain glioma), the LC50 (concentration giving 50% net cell loss relative to time zero) was found to be 22.9 µg/mL (≈ 38.6 µM), the GI50 was 1.4 µg/mL (≈ 2.36 µM), the 50% inhibitory concentration (IC50) is 4.38 µg/mL (≈ 7.39 µM) and the IC (total growth inhibition) worked out at 2.8 µg/mL. In the assay with HT29, the LC50 (concentration giving 50% net cell loss relative to time zero) came out at 122 µg/mL (≈ 205 µM), the GI50 worked out at 1.47 µg/mL (≈ 2.48 µM), the IC50 amounted to 3.26 µg/mL (≈ 5.5 µM) and the IC (total growth inhibition) worked out at 3.88 µg/mL.
